Experimental data from paper PMC12171682, “Saarvienin A—A Novel Glycopeptide with Potent Activity against Drug‐Resistant Bacteria” (Angewandte Chemie (International Ed. in English), 2025).
Like-named read-outs stand apart in the source and are kept apart here.

Key:
[1] = tested on: E. coli K12 ΔacrB; conditions: broth microdilution, cation-adjusted Mueller-Hinton Broth II, ~4 × 10⁵ CFU/mL, 37 °C, 24 h; mean of three independent biological replicates, each in technical triplicate
[2] = tested on: S. aureus HG001‐DRSA; conditions: daptomycin-resistant mutant of HG001; broth microdilution, cation-adjusted Mueller-Hinton Broth II, ~4 × 10⁵ CFU/mL, 37 °C, 24 h; mean of three independent biological replicates, each in technical triplicate
[3] = tested on: E. coli WO153 (AB1157, recJ asmB1, ΔtolC); conditions: broth microdilution, cation-adjusted Mueller-Hinton Broth II, ~4 × 10⁵ CFU/mL, 37 °C, 24 h; mean of three independent biological replicates, each in technical triplicate
[4] = tested on: S. aureus DSM 11822 (MDR); conditions: broth microdilution, cation-adjusted Mueller-Hinton Broth II, ~4 × 10⁵ CFU/mL, 37 °C, 24 h; mean of three independent biological replicates, each in technical triplicate
[5] = tested on: M. tuberculosis H37Ra ATCC 25177
[6] = tested on: S. aureus N315 (MRSA); conditions: broth microdilution, cation-adjusted Mueller-Hinton Broth II, ~4 × 10⁵ CFU/mL, 37 °C, 24 h; mean of three independent biological replicates, each in technical triplicate
[7] = tested on: vancomycin‐resistant E. faecium clinical isolates with reduced susceptibility to daptomycin (n = 26); conditions: broth microdilution, MHB II, daptomycin with 50 µg/mL Ca2+, mean of two independent experiments
[8] = tested on: E. faecalis DSM 12956 (VRE, vanB positive); conditions: broth microdilution, cation-adjusted Mueller-Hinton Broth II, ~4 × 10⁵ CFU/mL, 37 °C, 24 h; mean of three independent biological replicates, each in technical triplicate
[9] = tested on: S. aureus Mu50 (MRSA/VISA); conditions: broth microdilution, cation-adjusted Mueller-Hinton Broth II, ~4 × 10⁵ CFU/mL, 37 °C, 24 h; mean of three independent biological replicates, each in technical triplicate
[10] = tested on: E. coli K12 ΔtolC; conditions: broth microdilution, cation-adjusted Mueller-Hinton Broth II, 37 °C, 24 h, mean of three independent biological replicates, each in technical triplicate
[11] = tested on: E. faecalis ATCC 29212; conditions: broth microdilution, 37 °C, 24 h
[12] = 26 VRE E. faecium clinical isolates

CN[C@H](CC(C)C)C(=O)N[C@H]1C(=O)N[C@@H](CC(N)=O)C(=O)N[C@H]2C(=O)N[C@H]3C(=O)N[C@H](C(=O)N[C@H](C(=O)O)c4cc(O)cc(O)c4-c4cc3ccc4O)[C@H](O)c3ccc(c(Cl)c3)Oc3cc2cc(c3O[C@@H]2O[C@H](CO)[C@@H](O)[C@H](O)[C@H]2O[C@H]2C[C@](C)(N)[C@H](O)[C@H](C)O2)Oc2ccc(cc2Cl)[C@H]1O [Vancomycin, vancomycin]
1 µg/mL: MIC, S. aureus DSM 11822 (MDR) [4]
16 µg/mL: MIC, E. faecalis DSM 12956 (VRE, vanB positive) [8]
64 µg/mL: MIC, M. tuberculosis H37Ra ATCC 25177 [5] | MIC, Enterococcus faecium isolate 3 ([7]; clinical isolate 3, 37 °C, 24 h)
32 µg/mL: MIC, E. coli WO153 (AB1157, recJ asmB1, ΔtolC) [3]
>64 µg/mL: MIC, E. coli K12 ΔacrB [1] | MIC50 [7, 12] | MIC90 [7, 12] | MIC, E. coli K12 ΔtolC (tolC‐deficient) + PMBN ([10]; co‐incubated with sub‐lethal concentrations of polymyxin B nonapeptide (PMBN)) | MIC, E. coli K12 ΔtolC ([10]; without PMBN, ~4 × 10⁵ CFU/mL)
8 µg/mL: MIC, S. aureus Mu50 (MRSA/VISA) [9]
4 µg/mL: MIC, S. aureus HG001‐DRSA [2] | MIC, E. faecalis ATCC29212 ([11]; cation-adjusted Mueller-Hinton Broth II, ~4 × 10⁵ CFU/mL, mean of three independent biological replicates, each in technical triplicate) | MIC, E. faecalis ATCC29212 ([11]; reference strain in Table S5, MHB II, daptomycin with 50 µg/mL Ca2+, mean of two independent experiments)
2 µg/mL: MIC, S. aureus N315 (MRSA) [6]
> 64 µg/mL: MIC, Enterococcus faecium isolate 1 ([7]; clinical isolate 1, 37 °C, 24 h) | MIC, Enterococcus faecium isolate 2 ([7]; clinical isolate 2, 37 °C, 24 h) | MIC, Enterococcus faecium isolate 4 ([7]; clinical isolate 4, 37 °C, 24 h) | MIC, Enterococcus faecium isolate 5 ([7]; clinical isolate 5, 37 °C, 24 h) | MIC, Enterococcus faecium isolate 6 ([7]; clinical isolate 6, 37 °C, 24 h) | MIC, Enterococcus faecium isolate 7 ([7]; clinical isolate 7, 37 °C, 24 h) | MIC, Enterococcus faecium isolate 8 ([7]; clinical isolate 8, 37 °C, 24 h) | MIC, Enterococcus faecium isolate 9 ([7]; clinical isolate 9, 37 °C, 24 h) | MIC, Enterococcus faecium isolate 10 ([7]; clinical isolate 10, 37 °C, 24 h) | MIC, Enterococcus faecium isolate 11 ([7]; clinical isolate 11, 37 °C, 24 h) | MIC, Enterococcus faecium isolate 12 ([7]; clinical isolate 12, 37 °C, 24 h) | MIC, Enterococcus faecium isolate 13 ([7]; clinical isolate 13, 37 °C, 24 h) | MIC, Enterococcus faecium isolate 14 ([7]; clinical isolate 14, 37 °C, 24 h) | MIC, Enterococcus faecium isolate 15 ([7]; clinical isolate 15, 37 °C, 24 h) | MIC, Enterococcus faecium isolate 16 ([7]; clinical isolate 16, 37 °C, 24 h) | MIC, Enterococcus faecium isolate 17 ([7]; clinical isolate 17, 37 °C, 24 h) | MIC, Enterococcus faecium isolate 18 ([7]; clinical isolate 18, 37 °C, 24 h) | MIC, Enterococcus faecium isolate 19 ([7]; clinical isolate 19, 37 °C, 24 h) | MIC, Enterococcus faecium isolate 20 ([7]; clinical isolate 20, 37 °C, 24 h) | MIC, Enterococcus faecium isolate 21 ([7]; clinical isolate 21, 37 °C, 24 h) | MIC, Enterococcus faecium isolate 22 ([7]; clinical isolate 22, 37 °C, 24 h) | MIC, Enterococcus faecium isolate 23 ([7]; clinical isolate 23, 37 °C, 24 h) | MIC, Enterococcus faecium isolate 24 ([7]; clinical isolate 24, 37 °C, 24 h) | MIC, Enterococcus faecium isolate 25 ([7]; clinical isolate 25, 37 °C, 24 h) | MIC, Enterococcus faecium isolate 26 ([7]; clinical isolate 26, 37 °C, 24 h)
